Measured values from US20030018176A1, “Dry acid-chitosan complexes” (priority 1999, published 2003).

Assays:
[1] = Fat binding feeding study in rats on formulated high fat diet
Experimental: (§1) All rats were fed a basal diet for 5 days prior to initiation of dosing on Day 0. At Day 0, animals in Groups 1 to 5 and 7 received the appropriate formulated diet. The diet was available ad libitum. […] The total amount of the diet consumed by each animal was determined every 3 to 4 days.

[2] = rat, in vivo
Experimental: as §1

- Bilirubin [2]: 0.4 mg/dL
SMILES: CCCCCCCCCCC[C@@H](C[C@@H]1OC(=O)[C@H]1CCCCCC)OC(=O)[C@H](CC(C)C)NC=O [Xenical]
- Triglycerides ([1]; blood of rats, test article in diet): 107 mg/dL
- Weight Gain ([1]; rats, test article in diet ad libitum): 425 gms
- ALT [2]: 54 IU/L
- AST [2]: 104 IU/L
